What all share (format): functional
Test [1] relates to HL-60. Put plainly: Cell growth-inhibitory activity toward human leukemia cell line HL60 at 10 uM concentration.
The subject of test [2] is HL-60. The test is described as follows: Cell growth-inhibitory activity toward human leukemia cell line HL60 at 6 uM concentration.
In test [3] the test system is HL-60. Put plainly: Cell growth-inhibitory activity toward human leukemia cell line HL60 at 3 uM concentration.
The species named for test [4] is Sus scrofa. Put plainly: Inhibitory activity against tubulin polymerization at 20 uM.

Bounds are passed on as bounds.

By inhibition is commonly meant the change of the read-out against control, counted positive when it falls. A low value points to a response near the control. One may read the Inhibition as how much of the control response was suppressed.

In test [1], `O=C1c2cccc(O)c2C(=O)N1c1ccccc1` came in with an inhibition at 10 µM of roughly 0%. This molecule also had an inhibition at 6 µM in test [2] of roughly 0%. Also, in test [3], the inhibition at 3 µM is roughly 0%.

The molecule `O=C1c2ccc(O)cc2C(=O)N1c1ccccc1` registered an inhibition at 10 µM in test [1] of 34%. Moreover, the Inhibition in test [4] was less than 10%. In test [2], this molecule registered an inhibition at 6 µM of less than 5%. For the same molecule, the inhibition at 3 µM in test [3] was roughly 0%.

In test [1], `Cc1cccc(C)c1N1C(=O)c2cccc(O)c2C1=O` returned an inhibition at 10 µM of roughly 0%. Besides, the inhibition at 6 µM in test [2] is roughly 0%. In test [3], the inhibition at 3 µM was roughly 0%.

`CC(C)c1cccc(C(C)C)c1N1C(=O)c2ccc(O)cc2C1=O`: the inhibition at 10 µM in test [1] was roughly 100%. In test [4], this molecule returned an Inhibition of less than 83%. This molecule also returned an inhibition at 6 µM in test [2] of 72%. Testing at 3 µM in test [3] gave an inhibition of 6%.

In turn, `Cc1cccc(C)c1N1C(=O)c2ccc(O)cc2C1=O` showed an inhibition at 10 µM in test [1] of 6%. For the same molecule, the Inhibition in test [4] is listed as less than 10%. The molecule also showed an inhibition at 6 µM in test [2] of roughly 0%. Besides, the inhibition at 3 µM in test [3] was roughly 0%.

Molecule `CC(C)c1cccc(C(C)C)c1N1C(=O)c2cccc(O)c2C1=O` returned an inhibition at 10 µM in test [1] of 8%. Also, the Inhibition in test [4] is given as 7%. The same molecule showed an inhibition at 6 µM in test [2] of roughly 0%. The molecule also displayed an inhibition at 3 µM in test [3] of roughly 0%.

With `CC(C)c1cccc(C(C)C)c1N1C(=O)c2ccccc2C1=O`, the inhibition at 10 µM in test [1] is less than 5%. Besides, the Inhibition in test [4] is 7%. In test [2], this molecule showed an inhibition at 6 µM of roughly 0%. The inhibition at 3 µM in test [3] was roughly 0%.

Regarding `Cc1cccc(C)c1N1C(=O)c2ccccc2C1=O`, in test [1], the inhibition at 10 µM was roughly 0%. Further, the inhibition at 6 µM in test [2] is roughly 0%. Further, the inhibition at 3 µM in test [3] is roughly 0%.

In test [1], `CC(C)c1cccc(C(C)C)c1N1C(=O)c2cccc(N)c2C1=O` displayed an inhibition at 10 µM of roughly 0%. Besides, the Inhibition in test [4] is reported as less than 10%. In test [2], this molecule returned an inhibition at 6 µM of roughly 0%. This molecule also registered an inhibition at 3 µM in test [3] of roughly 0%.

For `CC(C)c1cccc(C(C)C)c1N1C(=O)c2ccc(N)cc2C1=O`, the inhibition at 10 µM in test [1] is 23%. Further, the Inhibition in test [4] was found to be 81%. This molecule showed an inhibition at 6 µM in test [2] of less than 5%. This molecule yielded an inhibition at 3 µM in test [3] of roughly 0%.

The molecule `CC(C)c1cccc(C(C)C)c1N1C(=O)c2cccc([N+](=O)[O-])c2C1=O` showed an inhibition at 10 µM in test [1] of roughly 0%. In test [4], this molecule gave an Inhibition of less than 10%. This molecule displayed an inhibition at 6 µM in test [2] of roughly 0%. In test [3], the inhibition at 3 µM was roughly 0%.

Molecule `CC(C)c1cccc(C(C)C)c1N1C(=O)c2ccc([N+](=O)[O-])cc2C1=O` yielded an inhibition at 10 µM in test [1] of 16%. For the same molecule, the Inhibition in test [4] is less than 10%. The inhibition at 6 µM in test [2] is less than 5%. In addition, the inhibition at 3 µM in test [3] is roughly 0%.

Turning to `COc1cc2c(c(OC)c1OC)-c1ccc(OC)c(=O)cc1[C@@H](NC(C)=O)CC2` [COLCHICINE], the Inhibition in test [4] is given as 78%.

`O=C1c2ccccc2C(=O)N1c1ccccc1` [N-PHENYL-PHTHALIMIDE] yielded an inhibition at 10 µM in test [1] of roughly 0%. In addition, the inhibition at 6 µM in test [2] is roughly 0%. This molecule had an inhibition at 3 µM in test [3] of roughly 0%.

The molecule `O=C1CCC(N2C(=O)c3ccccc3C2=O)C(=O)N1` (stereo not given) [THALIDOMIDE] had an Inhibition in test [4] of less than 10%.

Source of the values: ChEMBL document CHEMBL1140361, “Tubulin-polymerization inhibitors derived from thalidomide” (2005).
